Columns and labels:
Type in all cases: binding
[1] = molecular target: T1, human galectin-4C (C-terminal domain) (Homo sapiens, UniProt P56470); experiment: competitive fluorescence polarization assay, galectin-4C; settings: PBS
T1 construct: 4N (N-terminal domain) 4C (C-terminal domain); made in house
T1 sequence (P56470 194-323 limits assumed): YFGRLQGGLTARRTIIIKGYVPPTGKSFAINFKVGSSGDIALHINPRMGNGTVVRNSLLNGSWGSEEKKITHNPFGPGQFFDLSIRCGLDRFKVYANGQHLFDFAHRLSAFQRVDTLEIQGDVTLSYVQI
Text: (§1) Human galectin-1 [25], galectin-2 [26], galectin-3 [27], galectin-4N [19], galectin-4C [19], galectin-8N [28], galectin-8C [28], galectin-9N [29], and galectin-9C [30], were expressed and purified as described earlier. Human galectin-7 was expressed using a pET3c plasmid in E. coli BL21-star. The plasmid containing expression optimized DNA encoding the full human galectin-7 sequence (NCBI Reference Sequence: NP_002298.1) was obtained from GenScript (Piscataway, NJ, USA). […] Lactose was removed by chromatography on a PD-10 column (Amersham Biosciences) with repeated ultrafiltration with Centriprep (Amicon).
(§2) Fluorescence polarization experiments were carried out either with a POLARStar plate reader and FLUOstar Galaxy software or with a PheraStarFS plate reader and PHERAstar Mars version 2.10 R3 software (BMG, Offenburg, Germany). The dissociation constant (Kd) values were determined in PBS as described earlier. Specific conditions for galectin-1, 2, 3, 4N, 4C, 8N, 8C, 9N, and 9C were kept as reported. Experiments were performed at room temperature with human galectin-7 at 5 µM and the fluorescent probe β-D-galactopyranosyl-(1–4)-2-acetamido-2-deoxy-β-d-glucopyranosyl-(1–3)-β-d-galactopyranosyl-(1–4)-(N1-fluorescein-5-yl-carbonylaminomethylcarbonyl)-β-D-glucopyranosylamine at 0.02 µM. All the compounds in Table 1 except 32 were dissolved in a neat DMSO at 100 mM and diluted in PBS to three to six different concentrations to be tested in duplicate.

human galectin-2 = molecular target: T2, human galectin-2 (Homo sapiens, UniProt P05162); experiment: competitive fluorescence polarization assay, galectin-2; settings: average and SEM, PBS
T2 construct: made in house
T2 sequence (P05162 1-132): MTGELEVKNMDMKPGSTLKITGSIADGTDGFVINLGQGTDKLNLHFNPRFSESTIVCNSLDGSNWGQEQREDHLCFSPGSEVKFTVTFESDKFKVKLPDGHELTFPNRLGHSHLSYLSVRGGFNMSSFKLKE
Text: (§3) Human galectin-1 [25], galectin-2 [26], galectin-3 [27], galectin-4N [19], galectin-4C [19], galectin-8N [28], galectin-8C [28], galectin-9N [29], and galectin-9C [30], were expressed and purified as described earlier. Human galectin-7 was expressed using a pET3c plasmid in E. coli BL21-star. The plasmid containing expression optimized DNA encoding the full human galectin-7 sequence (NCBI Reference Sequence: NP_002298.1) was obtained from GenScript (Piscataway, NJ, USA). Bacterial culture and induction, and galectin purification was essential as described for galectin-3 expressed with the same vector [27]; a typical yield was 1.5–2 mg/L culture. Lactose was removed by chromatography on a PD-10 column (Amersham Biosciences) with repeated ultrafiltration with Centriprep (Amicon).
as §2

[2] = molecular target: T3, human galectin-9N (N-terminal domain) (Homo sapiens, UniProt O00182); experiment: competitive fluorescence polarization assay, galectin-9N; settings: PBS
T3 construct: 4N (N-terminal domain) 4C (C-terminal domain), 7, 8N, 8C, 9N, and 9C; made in house
Text: as §3, §2

human galectin-3 = molecular target: T4, human galectin-3 (Homo sapiens, UniProt P17931); experiment: competitive fluorescence polarization assay, galectin-3; settings: average and SEM, PBS
T4 construct: made in house; host or cells: vector pET3c (the same vector as galectin-7)
Text: as §1, §2

[3] = molecular target: T5, human galectin-4N (N-terminal domain) (Homo sapiens, UniProt P56470); experiment: competitive fluorescence polarization assay, galectin-4N; settings: N-terminal domain, average and SEM, PBS
T5 construct: 4N (N-terminal domain) 4C (C-terminal domain); made in house
T5 sequence (P56470 19-150 limits assumed): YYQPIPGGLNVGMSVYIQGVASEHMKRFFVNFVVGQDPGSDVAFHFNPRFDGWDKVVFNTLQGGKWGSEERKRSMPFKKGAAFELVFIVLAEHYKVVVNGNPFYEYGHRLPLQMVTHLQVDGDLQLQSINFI
Text: as §3, §2

[4] = molecular target: T6, human galectin-8N (N-terminal domain) (Homo sapiens, UniProt O00214); experiment: competitive fluorescence polarization assay, galectin-8N; settings: PBS
T6 construct: 4N (N-terminal domain) 4C (C-terminal domain), 7, 8N, 8C, 9N, and 9C; made in house
T6 sequence (O00214 19-152 limits assumed): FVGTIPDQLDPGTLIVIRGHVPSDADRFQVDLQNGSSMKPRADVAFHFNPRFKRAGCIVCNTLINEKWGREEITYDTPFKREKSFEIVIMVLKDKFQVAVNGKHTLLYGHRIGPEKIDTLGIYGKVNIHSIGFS
Text: as §1, §2

human galectin-1 = molecular target: T7, human galectin-1 (Homo sapiens, UniProt P09382); experiment: competitive fluorescence polarization assay, galectin-1; settings: for Kd: average and SEM of 4–8 single-triple point measurements, PBS
T7 construct: made in house
Text: as §1, §2

[5] = molecular target: T8, human galectin-8C (C-terminal domain) (Homo sapiens, UniProt O00214); experiment: competitive fluorescence polarization assay, galectin-8C; settings: PBS
T8 construct: 4N (N-terminal domain) 4C (C-terminal domain), 7, 8N, 8C, 9N, and 9C; made in house
T8 sequence (O00214 187-317 limits assumed): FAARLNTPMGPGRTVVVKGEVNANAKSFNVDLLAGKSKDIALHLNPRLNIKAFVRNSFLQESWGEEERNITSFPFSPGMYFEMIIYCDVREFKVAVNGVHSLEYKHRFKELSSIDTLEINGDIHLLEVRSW
Text: as §1, §2

human galectin-7 = molecular target: T9, human galectin-7 (Homo sapiens, UniProt P47929); experiment: competitive fluorescence polarization assay, galectin-7; settings: average and SEM, PBS, room temperature, galectin-7 at 5 µM, probe 0.02 µM
T9 construct: made in house; host or cells: E. coli BL21-star, pET3c plasmid (DNA from GenScript)
Text: as §3, §2

[6] = molecular target: T10, human galectin-9C (C-terminal domain) (Homo sapiens, UniProt O00182); experiment: competitive fluorescence polarization assay, galectin-9C; settings: PBS
T10 construct: 4N (N-terminal domain) 4C (C-terminal domain), 7, 8N, 8C, 9N, and 9C; made in house
Text: as §1, §2

T3 sequence (O00182 17-148 limits assumed): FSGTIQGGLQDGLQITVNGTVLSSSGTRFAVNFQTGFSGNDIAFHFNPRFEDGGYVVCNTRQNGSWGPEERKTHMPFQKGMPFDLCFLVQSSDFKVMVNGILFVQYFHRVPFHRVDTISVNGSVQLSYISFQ
T7 sequence (P09382 whole entry): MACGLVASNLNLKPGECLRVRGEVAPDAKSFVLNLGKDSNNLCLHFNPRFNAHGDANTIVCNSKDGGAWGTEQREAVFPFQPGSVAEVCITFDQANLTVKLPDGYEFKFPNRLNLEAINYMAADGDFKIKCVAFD
T10 sequence (O00182 227-355 limits assumed): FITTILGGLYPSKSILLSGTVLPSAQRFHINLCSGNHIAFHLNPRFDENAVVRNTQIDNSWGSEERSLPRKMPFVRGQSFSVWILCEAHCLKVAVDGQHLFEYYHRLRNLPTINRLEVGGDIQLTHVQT
T9 sequence (P47929 whole entry): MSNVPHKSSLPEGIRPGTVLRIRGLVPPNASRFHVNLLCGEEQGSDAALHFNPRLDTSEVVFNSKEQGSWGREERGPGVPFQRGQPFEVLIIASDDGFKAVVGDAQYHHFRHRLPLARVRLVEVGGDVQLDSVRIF
T4 sequence (P17931 whole entry): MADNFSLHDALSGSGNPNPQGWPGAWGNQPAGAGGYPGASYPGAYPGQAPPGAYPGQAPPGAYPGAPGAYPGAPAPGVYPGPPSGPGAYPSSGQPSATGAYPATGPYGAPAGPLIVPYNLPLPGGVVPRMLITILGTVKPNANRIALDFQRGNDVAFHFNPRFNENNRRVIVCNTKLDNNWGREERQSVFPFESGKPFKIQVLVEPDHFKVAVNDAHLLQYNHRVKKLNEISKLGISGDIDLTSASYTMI

| Kd ([1]; Table 2, average and SEM) | Kd (human galectin-2; Table 2) | Kd ([2]; Table 2, average and SEM) | Kd (human galectin-3; Table 2) | Kd ([3]; Table 2) | Kd ([4]; Table 2, average and SEM) | Kd (human galectin-1; Table 2) | Kd ([5]; Table 2, average and SEM) | Kd (human galectin-7; Table 2) | Kd ([6]; Table 2, average and SEM) | Compound | also measured |
| --- | --- | --- | --- | --- | --- | --- | --- | --- | --- | --- | --- |
| > 4 mM | > 4 mM | > 4 mM | > 4 mM | 2 ± 0.4 mM | > 4 mM | 1.8 ± 0.04 mM | 2.6 ± 0.6 mM | > 4 mM | > 4 mM | COc1cc(OC)cc(C(=O)NC[C@H]2[C@@H](O)[C@@H](CO)O[C@@H](OC)[C@@H]2O)c1 [Compound 7j, Methyl 3-Deoxy-3-C-(3,5-Dimethoxybenzamidomethyl)-β-D-Galactopyranoside] |  |
| > 4 mM | > 4 mM | > 4 mM | > 4 mM | > 4 mM | > 4 mM | 2.3 ± 0.4 mM | > 4 mM | > 4 mM | > 4 mM | CO[C@@H]1O[C@H](CO)[C@H](O)[C@H](CNC(=O)c2ccc(C)cc2)[C@H]1O [Compound 7i, Methyl 3-Deoxy-3-C-(p-Toluamidomethyl)-β-D-Galactopyranoside] |  |
| > 4 mM | > 4 mM | > 4 mM | > 4 mM | 2.2 ± 0.16 mM | > 4 mM | 1.9 ± 0.04 mM | > 4 mM | > 4 mM | > 4 mM | CO[C@@H]1O[C@H](CO)[C@H](O)[C@H](CNC(=O)c2ccccc2F)[C@H]1O [Compound 7c, Methyl 3-Deoxy-3-C-(2-Fluorobenzamidomethyl)-β-D-Galactopyranoside] |  |
| > 4 mM | > 4 mM | > 4 mM | > 4 mM | 1.9 ± 0.05 mM | > 4 mM | 1.5 ± 0.08 mM | 2.7 ± 0.5 mM | > 4 mM | > 4 mM | CO[C@@H]1O[C@H](CO)[C@H](O)[C@@H](CNC(C)=O)[C@H]1O [Compound 7b, Methyl 3-Deoxy-3-C-Acetamidomethyl-β-D-Gulopyranoside] |  |
| > 4 mM | > 4 mM | > 4 mM | > 4 mM | 1.9 ± 0.1 mM | > 4 mM | 1.8 ± 0.07 mM | > 4 mM | > 4 mM | > 4 mM | CO[C@@H]1O[C@H](CO)[C@H](O)[C@H](CNC(=O)c2cccc(C(F)(F)F)c2)[C@H]1O [Compound 7k, Methyl 3-Deoxy-3-C-(3-Trifluoromethylbenzamidomethyl)-β-D-Galactopyranoside] |  |

Further lines, the compound ahead of its results:

| Compound | Kd ([1]; Table 2, average and SEM) | Kd (human galectin-2; Table 2) | Kd ([2]; Table 2, average and SEM) | Kd (human galectin-3; Table 2) | Kd ([3]; Table 2) | Kd ([4]; Table 2, average and SEM) | Kd (human galectin-1; Table 2) | Kd ([5]; Table 2, average and SEM) | Kd (human galectin-7; Table 2) | Kd ([6]; Table 2, average and SEM) | also measured |
| --- | --- | --- | --- | --- | --- | --- | --- | --- | --- | --- | --- |
| CO[C@@H]1O[C@H](CO)[C@H](O)[C@H](Cn2cc(-c3cccc(F)c3)nn2)[C@H]1O [Compound 4, Methyl 3-Deoxy-3-C-[4-(3-Fluorophenyl)-1H-1,2,3-Triazol-1-Ylmethyl]-β-D-Galactopyranoside] |  |  |  |  |  |  |  |  |  |  | Kd ([1]; Table 1, average and SEM): > 4 mM; Kd (human galectin-2; Table 1): > 4 mM; Kd ([2]; Table 1, average and SEM): > 4 mM; Kd (human galectin-3; Table 1): > 4 mM; Kd ([3]; Table 1): > 4 mM; Kd ([4]; Table 1, average and SEM): > 4 mM; Kd (human galectin-1; Table 1): > 4 mM; Kd ([5]; Table 1, average and SEM): > 4 mM; Kd (human galectin-7; Table 1): > 4 mM; Kd ([6]; Table 1, average and SEM): > 4 mM |
| CO[C@@H]1O[C@H](CO)[C@H](O)[C@H](CNC(=O)c2cc(F)c(F)c(F)c2)[C@H]1O [Compound 7f, Methyl 3-Deoxy-3-C-(3,4,5-Trifluorobenzamidomethyl)-β-D-Galactopyranoside] | > 4 mM | > 4 mM | > 4 mM | > 4 mM | > 4 mM | > 4 mM | 2.5 ± 0.4 mM | > 4 mM | > 4 mM | > 4 mM |  |
| CO[C@@H]1O[C@H](CO)[C@H](O)[C@H](CNC(=O)c2ccc(F)cc2)[C@H]1O [Compound 7e, Methyl 3-Deoxy-3-C-(4-Fluorobenzamidomethyl)-β-D-Galactopyranoside] | > 4 mM | > 4 mM | > 4 mM | 1.6 ± 0.03 mM | 1.7 ± 0.07 mM | > 4 mM | 1.7 ± 0.06 mM | > 4 mM | > 4 mM | > 4 mM |  |
| CO[C@@H]1O[C@H](CO)[C@H](O)[C@H](COc2cccc(C(F)(F)F)c2)[C@H]1O [Compound 2, Methyl 3-Deoxy-3-C-(3-Trifluoromethylphenoxymethyl)-β-D-Galactopyranoside] |  |  |  |  |  |  |  |  |  |  | Kd ([1]; Table 1, average and SEM): > 4 mM; Kd (human galectin-2; Table 1): > 4 mM; Kd ([2]; Table 1, average and SEM): > 4 mM; Kd (human galectin-3; Table 1): > 4 mM; Kd ([3]; Table 1): > 4 mM; Kd ([4]; Table 1, average and SEM): > 4 mM; Kd (human galectin-1; Table 1): > 4 mM; Kd ([5]; Table 1, average and SEM): > 4 mM; Kd (human galectin-7; Table 1): > 4 mM; Kd ([6]; Table 1, average and SEM): > 4 mM |
| CO[C@@H]1O[C@H](CO)[C@H](O)[C@H](CNC(=O)c2ccc(-c3ccccc3)cc2)[C@H]1O [Compound 7l, Methyl 3-Deoxy-3-C-(4-Phenylbenzamidomethyl)-β-D-Galactopyranoside] | > 4 mM | > 4 mM | > 4 mM | > 4 mM | > 4 mM | > 4 mM | > 4 mM | > 4 mM | > 4 mM | > 4 mM | binding to galectin-1 (in words) (human galectin-1; under the assay conditions): did not bind |

Reference: PMC6696278 (International Journal of Molecular Sciences, 2019)
